Experiments:
[1] = test system: M-tropic R5 HIV lab-strain BaL; assay: In vitro infection of PBMC cultures with HIV BaL, p24 ELISA / TCID50; format: cell-based
[2] = test system: X4 strain of the 968 clone (968-1); assay: In vitro infection of MDM with clinical isolate 968-1 (X4), viral titer (TCID50); format: cell-based, HIV
From the text: (§1) For in vitro infection experiments, monocytes were obtained from buffy coats of healthy donors of the Blood Transfusion Center of Antwerp (Rode Kruis Vlaanderen, Belgium) by counterflow elutriation, as described previously (Van Herrewege et al., 2002). These cells were then differentiated to monocyte-derived macrophages (MDM) during seven days in RPMI 1640 medium (Bio-Whittaker, Verviers, Belgium) supplemented with 10% bovine fetal calf serum (Biochrom, Berlin, Germany), penicillin (100 U/ml) and streptomycin (100 μg/ml) (Roche Diagnostics, Mannheim, Germany) and 40 ng/ml M-CSF (PeproTech, London, United Kingdom) at 37° C. and 5.0% CO2. Half the medium was replaced after four days. Cells were then harvested and used for experiments in the same medium (without M-CSF).
(§2) For infection experiments, MDM were plated in 96-well plates at 7.5×10^5 cells/ml and pre-treated with recombinant visfatin (200 ng/ml) for 1 hour at 37° C. and 5.0% CO2. Then, virus was added in six-fold and incubated for 2 hours, again at 37° C. and 5.0% CO2. Cells were then washed 3× to remove unbound virus and incubated for 14 days. Productive infection was monitored via an in-house-developed p24 antigen ELISA, as described elsewhere (Beirnaert et al., 1998).
R5 and X4 strains of the 968 viral clone were isolated from one patient, and differ only in co-receptor usage.

[3] = test system: T-tropic X4 HIV lab-strain IIIB (=HxB2); assay: In vitro infection with X4 HIV lab-strain IIIB, viral infectivity (TCID50); format: cell-based; details: same experiment as for BaL
Description: as §2
This signifies that by selectively inhibiting R5 and not X4 HIV, visfatin contributes to the HIV co-receptor switch seen in ca. 50% of all patients in which the co-receptor usage of the dominant quasispecies within the patient switches from the moderately virulent R5 to the more aggressive X4, leading to increased progression to AIDS.

[4] = test system: M-tropic R5 HIV lab-strain BaL; assay: In vitro infection of monocyte-derived macrophages (MDM) with HIV BaL, p24 ELISA / TCID50; format: cell-based; details: MDM cultures
From the text: as §1, §2
This viral infectivity can be quantified by calculating the TCID50 (Tissue Culture Infectious Dose 50%, i.e., the dose of virus that has a 50% chance of infecting a cell culture) values of the viral stocks. Addition of visfatin reduces the TCID50 values of BaL by approximately one log in both PBMC and MDM cultures, signifying a 90% reduction in viral infectivity (FIG. 7, Panel A).

[5] = 200 ng/ml PBEF1, 14 days of culture
[6] = PBMC cultures, 200 ng/ml PBEF1, 14 days of culture

Compound	infectivity of HIVBaL (TCID50) ([1]; PBMC cultures, 100 μM nicotinamide mononucleotide, 14 days of culture)	viral titer of X4 clinical isolate in MDM [2, 5]	productive infection of MDM by X4 clinical isolate 968-1 ([2]; strain incapable of infecting untreated MDM)	effect on viral infectivity of X4 strain IIIB [3]	reduction in viral infectivity [1, 6] [%]	reduction of TCID50 value of BaL [1, 6]	viral infectivity (productive infection, p24 secretion) ([1]; activated PBMC cultures, recombinant visfatin added prior to infection with BaL)	reduction in viral infectivity [4, 5] [%]	reduction of TCID50 value of BaL [4, 5]	viral infectivity (productive infection, p24 secretion) ([4]; recombinant visfatin (200 ng/ml) added prior to infection with BaL)
NC(=O)c1ccc[n+]([C@@H]2O[C@H](COP(=O)([O-])O)[C@@H](O)[C@H]2O)c1 [NMN, nicotinamide mononucleotide, reference compound]	reduces the infectivity									
visfatin: Recombinant visfatin (PBEF1, nicotinamide phosphoribosyltransferase) protein obtained from PeproTech		increased the viral titer	allowed the 968-1 clone to establish a productive infection	does not mediate this effect	90	approximately one	decreases the viral infectivity	90	approximately one	decreases the viral infectivity
